Test results reported in patent US8551984B2, “Aminopyrimidines as SYK inhibitors” (Merck Sharp & Dohme Corp., priority 2009, dated 2013).
pIC50: −log10 of the molar value.

Molecular target: rhSYK (Homo sapiens, UniProt P43405)
Assay: biochemical

Row | Structure (SMILES) | pIC50
1 | CCC(CO)NC(=O)CCc1ncc(-c2cc(C)cc(Nc3nccc(C(F)(F)F)n3)c2)s1 (centres unmarked) [Example 117-15] | > 7.00
2 | Cc1cc(Nc2nccc(C(C)F)n2)cc(-c2cnc(C3(O)CCC(C(N)=O)C(C)(C)C3)s2)c1 (centres unmarked) [Example 119-122] | > 7.00
3 | Cc1cc(Nc2nccc(C(F)(F)F)n2)cc(-c2cnc([C@]3(O)CC[C@@H](C(=O)NCc4cccc5c4C(=O)NC5)CC3)s2)c1 [Example 119-96] | > 7.00
4 | Cc1cc(Nc2nccc(C(C)C)n2)cc(-c2cnc(C3(O)CCCN(C(=O)CC(N)=O)CC3)s2)c1 (centres unmarked) [Example 117-13] | > 7.00
5 | COC(=O)C(C)NC(=O)CCc1ncc(-c2cc(C)cc(Nc3nccc(C(F)(F)F)n3)c2)s1 (centres unmarked) [Example 117-17] | > 7.00
6 | Cc1cc(Nc2nccc(C(F)(F)F)n2)cc(-c2cnc([C@]3(O)CC[C@@H](C(=O)NCc4ccc(-n5cc(CO)cn5)cc4)CC3)s2)c1 [Example 119-105] | > 7.00
7 | Cc1cc(Nc2nccc(C(F)(F)F)n2)cc(-c2cnc([C@]3(O)CC[C@@H](C(=O)NCC4CC4)CC3)s2)c1 [Example 119-23] | > 7.00
8 | COCCCNC(=O)[C@H]1CC[C@](O)(c2ncc(-c3cc(C)cc(Nc4nccc(C(F)(F)F)n4)c3)s2)CC1 [Example 119-31] | > 7.00
9 | COc1ccnc(Nc2cc(C)cc(-c3cnc([C@@]4(O)CC[C@H](C(=O)NCC#N)C(C)(C)C4)s3)c2)n1 [Example 119-133] | > 7.00
10 | Cc1cc(Nc2nccc(C(F)(F)F)n2)cc(-c2cnc([C@]3(O)CC[C@@H](C(=O)NCc4ccc(O)cc4)CC3)s2)c1 [Example 119-75] | > 7.00
11 | Cc1cc(Nc2nccc(C(C)C)n2)cc(-c2cnc([C@]3(O)CC[C@@H](C(N)=O)CC3)s2)c1 [Example 119-8] | > 7.00
12 | CC1(C)C[C@@](O)(c2ncc(-c3cc(Cl)cc(Nc4nccc(C(F)(F)F)n4)c3)s2)CC[C@@H]1C(N)=O [Example 119-144] | > 7.00
13 | COCc1cc(Nc2nccc(C(F)(F)F)n2)cc(-c2cnc(C3(O)CCC(C(N)=O)C(C)C3)s2)c1 (centres unmarked) [Example 119-142] | > 7.00
14 | Cc1cc(Nc2nccc(C(F)(F)F)n2)cc(-c2cnc(C3(O)CCC(C(=O)N(C)Cc4ccccc4)CC3)s2)c1 (centres unmarked) [Example 119-69] | > 7.00
15 | Cc1cc(Nc2nccc(C(F)(F)F)n2)cc(-c2cnc(C3(O)CCC(C(=O)NCc4ccc(CC5COC(=O)N5)cc4)CC3)s2)c1 (centres unmarked) [Example 119-106] | > 7.00
16 | Cc1cc(Nc2nccc(C(C)O)n2)cc(-c2cnc(C3(O)CCC(C(N)=O)C(C)(C)C3)s2)c1 (centres unmarked) [Example 119-120] | > 7.00
17 | Cc1cc(Nc2nccc(C(F)(F)F)n2)cc(-c2cnc(C3(O)CCC(C(=O)N(C)CCC#N)CC3)s2)c1 (centres unmarked) [Example 119-28] | > 7.00
18 | Cc1cc(Nc2ncc(Cl)c(C)n2)cc(-c2cnc(C3(O)CCC4(CC3)OCCO4)s2)c1 [Example 116B-2] | > 7.00
19 | Cc1cc(Nc2nccc(C(F)(F)F)n2)cc(-c2cnc(C3(O)CCC(C(=O)NC4c5ccccc5CC4O)CC3)s2)c1 (centres unmarked) [Example 119-95] | > 7.00
20 | CCN(C)C(=O)[C@H]1CC[C@](O)(c2ncc(-c3cc(C)cc(Nc4nccc(C(F)(F)F)n4)c3)s2)CC1 [Example 119-21] | > 7.00
21 | COCc1cc(Nc2nccc(C(F)(F)F)n2)cc(-c2cnc([C@@]3(O)CC[C@H](C(N)=O)C(C)(C)C3)s2)c1 [Example 119-143] | > 7.00
22 | Cc1cc(Nc2nccc(C(F)(F)F)n2)cc(-c2cnc(C3(O)CCC(C(=O)NC4CCC(C(=O)O)CC4)CC3)s2)c1 (centres unmarked) [Example 119-91] | > 7.00

Row | Structure (SMILES) | pIC50
23 | NC(=O)[C@H]1CC[C@](O)(c2ncc(-c3cc(Cl)cc(Nc4nccc(C(F)(F)F)n4)c3)s2)CC1 [Example 119-145] | > 7.00
24 | Cc1cc(Nc2nccc(C(F)(F)F)n2)cc(-c2cnc([C@]3(O)CC[C@@H](C(=O)NCc4ccccc4O)CC3)s2)c1 [Example 119-74] | > 7.00
25 | COC(=O)CCNC(=O)CCc1ncc(-c2cc(C)cc(Nc3nccc(C(F)(F)F)n3)c2)s1 [Example 117-18] | > 7.00
26 | COc1ccnc(Nc2cc(C)cc(-c3cnc(C4(O)CCC(C(N)=O)C(C)(C)C4)s3)c2)n1 (centres unmarked) [Example 119-117] | > 7.00
27 | Cc1cc(Nc2nccc(C)n2)cc(-c2cnc([C@@]3(O)CC[C@H](C(=O)NCCCN4CCCC4=O)C(C)(C)C3)s2)c1 [Example 119-135] | > 7.00
28 | Cc1cc(Nc2nccc(C(F)(F)F)n2)cc(-c2cnc([C@]3(O)CC[C@@H](C(=O)NCc4cccs4)CC3)s2)c1 [Example 119-63] | > 7.00
29 | Cc1cc(Nc2nccc(C(C)(C)C)n2)cc(-c2cnc(C3(O)CCC(C(N)=O)CC3)s2)c1 (centres unmarked) [Example 119-9] | > 7.00
30 | Cc1cc(Nc2nccc(C(F)(F)F)n2)cc(-c2cnc([C@]3(O)CC[C@@H](C(=O)N4CCOCC4)CC3)s2)c1 [Example 119-29] | > 7.00
31 | COC(=O)C(CC(C)C)NC(=O)CCc1ncc(-c2cc(C)cc(Nc3nccc(C(F)(F)F)n3)c2)s1 (centres unmarked) [Example 117-19] | 6.00 to 7.00
32 | Cc1cc(Nc2nccc(C3CC3)n2)cc(-c2cnc(C3(O)CCC(C(N)=O)C(C)(C)C3)s2)c1 (centres unmarked) [Example 119-118] | > 7.00
33 | Cc1cc(Nc2nccc(C(F)(F)F)n2)cc(-c2cnc(C3(O)CCC(C(=O)NCc4cc[nH]n4)CC3)s2)c1 (centres unmarked) [Example 119-39] | > 7.00
34 | Cc1cc(Nc2nccc(C(F)(F)F)n2)cc(-c2cnc([C@]3(O)CC[C@@H](C(=O)Nc4ccccc4O)CC3)s2)c1 [Example 119-56] | > 7.00
35 | Cc1cc(Nc2nccc(C(F)(F)F)n2)cc(-c2cnc(C3(O)CCC(C(=O)NC4CCCCC4)CC3)s2)c1 (centres unmarked) [Example 119-44] | > 7.00
36 | Cc1cc(Nc2nccc(C(F)(F)F)n2)cc(-c2cnc(C3(O)CCC(C(=O)NCC(O)CO)CC3)s2)c1 (centres unmarked) [Example 119-32] | > 7.00
37 | Cc1cc(Nc2nccc(C(F)(F)F)n2)cc(-c2cnc([C@]3(O)CC[C@@H](C(=O)NCc4ccc5c(c4)C(=O)NC5)CC3)s2)c1 [Example 119-97] | > 7.00
38 | Cc1cc(Nc2nccc(C(F)(F)F)n2)cc(-c2cnc(C3(O)CCC(C(=O)NCCC(N)=O)CC3)s2)c1 (centres unmarked) [Example 119-30] | > 7.00
39 | COc1cccc(N2CCN(C(=O)C3CCC(O)(c4ncc(-c5cc(C)cc(Nc6nccc(C(F)(F)F)n6)c5)s4)CC3)CC2)c1 (centres unmarked) [Example 119-139] | > 7.00
40 | Cc1cc(Nc2nccc(C(F)(F)F)n2)cc(-c2cnc([C@]3(O)CC[C@@H](C(=O)NCc4ccc(C(F)(F)F)cc4)CC3)s2)c1 [Example 119-100] | > 7.00
41 | Cc1cc(Nc2nccc(C(F)(F)F)n2)cc(-c2cnc([C@@]3(O)CC[C@H](C(N)=O)C(C)(C)C3)s2)c1Br [Example 117-22] | > 7.00
42 | Cc1cc(Nc2nccc(C(F)(F)F)n2)cc(-c2cnc([C@]3(O)CC[C@@H](C(=O)N(CCO)CCO)CC3)s2)c1 [Example 119-50] | > 7.00
43 | CCOC(=O)CNC(=O)CCc1ncc(-c2cc(C)cc(Nc3nccc(C(F)(F)F)n3)c2)s1 [Example 117-16] | > 7.00
44 | Cc1cc(Nc2nccc(C(F)(F)F)n2)cc(-c2cnc([C@]3(O)CC[C@@H](C(=O)NC(CO)CO)CC3)s2)c1 [Example 191-33] | > 7.00

Row | Structure (SMILES) | pIC50
45 | Cc1cc(Nc2nccc(C(F)(F)F)n2)cc(-c2cnc(C3(O)CCC(CC(N)=O)CC3)s2)c1 (centres unmarked) [Example 117-8] | > 7.00
46 | Cc1cc(Nc2nccc(C(F)(F)F)n2)cc(-c2cnc([C@]3(O)CC[C@@H](C(=O)NCCO)CC3)s2)c1 [Example 119-22] | > 7.00
47 | Cc1cc(Nc2nccc(C)n2)cc(-c2cnc(C3(O)CCC(C(=O)NCC#N)C(C)C3)s2)c1 (centres unmarked) [Example 119-108] | > 7.00
48 | Cc1cc(Nc2nccc(C(F)(F)F)n2)cc(-c2cnc([C@]3(O)CC[C@@H](C(=O)NCC(=O)O)CC3)s2)c1 [Example 119-26] | > 7.00
49 | COC(=O)N1CCN(C(=O)C2CCC(O)(c3ncc(-c4cc(C)cc(Nc5nccc(C(F)(F)F)n5)c4)s3)CC2)CC1 (centres unmarked) [Example 119-92] | > 7.00
50 | Cc1cc(Nc2nccc(C(F)(F)F)n2)cc(-c2cnc([C@]3(O)CC[C@@H](C(=O)Nc4ccc(O)cc4O)CC3)s2)c1 [Example 119-76] | > 7.00
51 | Cc1cc(Nc2nccc(C(F)(F)F)n2)cc(-c2cnc(C3(O)CCC(C(=O)NCCOc4ccccc4)CC3)s2)c1 (centres unmarked) [Example 119-84] | > 7.00
52 | Cc1cc(Nc2nccc(C(F)(F)F)n2)cc(-c2cnc([C@]3(O)CC[C@@H](C(N)=O)C(C)(C)C3)s2)c1 [Example 119-131] | > 7.00
53 | Cc1cc(Nc2nccc(C(F)(F)F)n2)cc(-c2cnc(C3(O)CCC(C(=O)NC4CCC(C(N)=O)CC4)CC3)s2)c1 (centres unmarked) [Example 119-90] | > 7.00
54 | Cc1cc(Nc2nccc(C(F)(F)F)n2)cc(-c2cnc([C@]3(O)CC[C@@H](C(=O)NCc4cccc(O)c4)CC3)s2)c1 [Example 119-71] | > 7.00
55 | Cc1cc(Nc2nccc(C(F)(F)F)n2)cc(-c2cnc([C@]3(O)CC[C@@H](C(=O)Nc4ccc(CO)cc4)CC3)s2)c1 [Example 119-72] | > 7.00
56 | Cc1cc(Nc2nccc(C)n2)cc(-c2cnc(C3(O)CCC(C(N)=O)C(C)(C)C3)s2)c1 (centres unmarked) [Example 119-7] | > 7.00
57 | Cc1cc(Nc2nccc(C(F)(F)F)n2)cc(-c2cnc([C@]3(O)CC[C@@H](C(=O)N4CCC4)CC3)s2)c1 [Example 119-19] | > 7.00
58 | COc1ccnc(Nc2cc(C)cc(-c3cnc([C@@]4(O)CC[C@H](C(=O)NCc5cccnc5)C(C)(C)C4)s3)c2)n1 [Example 119-134] | > 7.00
59 | Cc1cc(Nc2nccc(C(F)(F)F)n2)cc(-c2cnc([C@]3(O)CC[C@@H](C(=O)NCc4ccccn4)CC3)s2)c1 [Example 119-54] | > 7.00
60 | Cc1cc(Nc2nccc(C(F)(F)F)n2)cc(-c2cnc([C@]3(O)CC[C@@H](C(=O)Nc4ccc(F)cc4)CC3)s2)c1 [Example 119-62] | > 7.00
61 | Cc1cc(Nc2nccc(C(F)(F)F)n2)cc(-c2cnc([C@]3(O)CC[C@@H](C(=O)N4CCCC4)CC3)s2)c1 [Example 119-24] | > 7.00
62 | Cc1cc(Nc2nccc(OCCO)n2)cc(-c2cnc(CCC(N)=O)s2)c1 [Example 117-14] | > 7.00
63 | Cc1cc(Nc2nccc(OC(C)C)n2)cc(-c2cnc(C3(O)CCC(C(N)=O)C(C)C3)s2)c1 (centres unmarked) [Example 119-110] | > 7.00
64 | Cc1cc(Nc2nccc(C)n2)cc(-c2cnc(C3(O)CCC(C(=O)NCc4cccnc4)C(C)C3)s2)c1 (centres unmarked) [Example 119-114] | > 7.00
65 | Cc1cc(Nc2nccc(C)n2)cc(-c2cnc(C3(O)CCC(C(N)=O)C4CCCCC43)s2)c1 (centres unmarked) [Example 117-2] | > 7.00
